Results reported in patent publication US20130165428A1, “XANTHINE DERIVATIVES, THE PREPARATION THEREOF AND THEIR USE AS PHARMACEUTICAL COMPOSITIONS” (Boehringer Ingelheim Pharma GmbH & Co. KG, priority 2001, published 2013).
Where a name gives a salt, the structure may show the parent alone.

Key:
[1] = molecular target: T1, DPP-IV (Homo sapiens, UniProt P27487); experiment: DPP-IV assay with extract of Caco-2 cells as DPP IV source; type: biochemical; conditions: extract of human colon carcinoma cell line Caco-2 as DPP IV source, substrate AFC 100 μM, 60 minutes, ambient temperature; read-out: DPP IV inhibition IC50
T1 construct: an extract of the human colon carcinoma cell line Caco-2 is used as the DPP IV source; host or cells: Caco-2 (differentiated to induce DPP-IV expression), Nonidet-P40 solubilised extract
T1 sequence (P27487 whole entry): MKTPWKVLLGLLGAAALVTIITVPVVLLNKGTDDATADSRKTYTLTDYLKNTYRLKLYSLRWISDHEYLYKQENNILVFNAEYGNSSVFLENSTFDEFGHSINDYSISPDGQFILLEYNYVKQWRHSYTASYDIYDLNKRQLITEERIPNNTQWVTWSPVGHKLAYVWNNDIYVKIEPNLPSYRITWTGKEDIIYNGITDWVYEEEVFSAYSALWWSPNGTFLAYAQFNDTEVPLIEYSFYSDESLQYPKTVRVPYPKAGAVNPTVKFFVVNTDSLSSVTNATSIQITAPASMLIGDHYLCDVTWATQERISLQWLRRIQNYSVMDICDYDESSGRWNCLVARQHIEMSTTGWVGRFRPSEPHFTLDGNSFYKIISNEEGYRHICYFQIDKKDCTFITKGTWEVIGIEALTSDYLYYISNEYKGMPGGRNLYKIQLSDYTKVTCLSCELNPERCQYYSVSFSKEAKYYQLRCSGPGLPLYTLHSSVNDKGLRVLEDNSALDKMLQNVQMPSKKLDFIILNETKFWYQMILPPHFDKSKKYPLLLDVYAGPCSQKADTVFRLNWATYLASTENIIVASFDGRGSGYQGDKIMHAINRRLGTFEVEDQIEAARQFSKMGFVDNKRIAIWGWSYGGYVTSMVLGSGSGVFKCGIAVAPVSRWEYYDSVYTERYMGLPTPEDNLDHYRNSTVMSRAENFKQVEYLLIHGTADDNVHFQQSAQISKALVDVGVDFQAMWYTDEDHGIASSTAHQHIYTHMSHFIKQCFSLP
Method: This cell line was obtained from the American Type Culture Collection (ATCC HTB 37). […] The cell extract was obtained from cells solubilised in a buffer (10 mM Tris HCl, 0.15 M NaCl, 0.04 t.i.u. aprotinin, 0.5% Nonidet-P40, pH 8.0) by centrifugation at 35,000 g for 30 minutes at 4° C. (to remove cell debris).
The DPP-IV assay was carried out as follows:
50 μl of substrate solution (AFC; AFC is amido-4-trifluoromethylcoumarin), final concentration 100 μM, were placed in black microtitre plates. 20 μl of assay buffer (final concentrations 50 mM Tris HCl pH 7.8, 50 mM NaCl, 1% DMSO) was pipetted in. The reaction was started by the addition of 30 μl of solubilised Caco-2 protein (final concentration 0.14 μg of protein per well). The test substances under investigation were typically added prediluted to 20 μl, while the volume of assay buffer was then reduced accordingly. The reaction was carried out at ambient temperature, the incubation period was 60 minutes. […] Dummy values (corresponding to 0% activity) were obtained in mixtures with no Caco-2 protein (volume replaced by assay buffer), control values (corresponding to 100% activity) were obtained in mixtures without any added substance.

Row | melting point [°C] | IC50 [1] [nM] | Structure (SMILES)
1 | 159 to 160 |  | CC(C)=CCn1c(N2CCCC(N)(C(=O)N3CCCC3)C2)nc2c1c(=O)n(C)c(=O)n2C (centres unmarked) (as salt: sodium) [Example 1(139), 1,3-dimethyl-7-(3-methyl-2-buten-1-yl)-8-[3-amino-3-(pyrrolidin-1-ylcarbonyl)-piperidin-1-yl]-xanthine]
2 |  | 230 | CC(C)=CCn1c(N[C@@H]2CCCC[C@@H]2N)nc2c1c(=O)n(C)c(=O)n2C (relative stereo) [1(6), 1,3-dimethyl-7-(3-methyl-2-buten-1-yl)-8-[(cis-2-amino-cyclohexyl)amino]-xanthine]
3 | 172.5 to 175 |  | CN[C@H]1CCCC[C@H]1Nc1nc2c(c(=O)n(C)c(=O)n2C)n1CC=C(C)C (relative stereo) [Example 1(77), 1,3-dimethyl-7-(3-methyl-2-buten-1-yl)-8-[cis-(2-methylamino-cyclohexyl)amino]-xanthine]
4 |  | 624 | CC(C)=CCn1c(N2CCCC(N)C2)nc2c1c(=O)[nH]c(=O)n2C (centres unmarked) [1(15), 3-methyl-7-(3-methyl-2-buten-1-yl)-8-(3-amino-piperidin-1-yl)-xanthine]
5 |  | 78 | CCn1c(=O)c2c(nc(N3CCCC(N)C3)n2CC=C(C)C)n(C)c1=O (centres unmarked) [1(16), 1-ethyl-3-methyl-7-(3-methyl-2-buten-1-yl)-8-(3-amino-piperidin-1-yl)-xanthine]
6 |  | 2770 | CC(C)=CCn1c(N2CCCC(N)C2)nc2c1c(=O)n(C(C)C)c(=O)n2C (centres unmarked) [1(19), 1-(2-propyl)-3-methyl-7-(3-methyl-2-buten-1-yl)-8-(3-amino-piperidin-1-yl)-xanthine]
7 |  | 124 | C=CCn1c(=O)c2c(nc(N3CCCC(N)C3)n2CC=C(C)C)n(C)c1=O (centres unmarked) [1(21), 1-(2-propen-1-yl)-3-methyl-7-(3-methyl-2-buten-1-yl)-8-(3-amino-piperidin-1-yl)-xanthine]
8 |  | 125 | CC(C)=CCn1c(N2CCCC(N)C2)nc2c1c(=O)n(CCO)c(=O)n2C (centres unmarked) [1(27), 1-(2-hydroxyethyl)-3-methyl-7-(3-methyl-2-buten-1-yl)-8-(3-amino-piperidin-1-yl)-xanthine]
9 | 119 |  | CC(C)=CCn1c(N2CCC(N)C2)nc2c1c(=O)n(C)c(=O)n2C (centres unmarked) [Example 1(1), 1,3-dimethyl-7-(3-methyl-2-buten-1-yl)-8-(3-amino-pyrrolidin-1-yl)-xanthine]
10 | 153 to 154.5 |  | CC(C)=CCn1c(N2CCCC(N)C2)nc2c1c(=O)n(CCc1c(C)cc(C)cc1C)c(=O)n2C (centres unmarked) [Example 1(36), 1-[2-(2,4,6-trimethyl-phenyl)-ethyl]-3-methyl-7-(3-methyl-2-buten-1-yl)-8-(3-amino-piperidin-1-yl)-xanthine]
11 | 130 to 132 |  | CC(C)=CCn1c(N2CCCC(N)C2)nc2c1c(=O)n(CCc1ccc(Cl)cc1Cl)c(=O)n2C (centres unmarked) [Example 1(37), 1-[2-(2,4-dichloro-phenyl)-ethyl]-3-methyl-7-(3-methyl-2-buten-1-yl)-8-(3-amino-piperidin-1-yl)-xanthine]
12 | 136 to 138.6 |  | CC(C)=CCn1c(N2CCCC(N)C2)nc2c1c(=O)n(CCn1cccc1)c(=O)n2C (centres unmarked) [Example 1(61), 1-[2-(pyrrol-1-yl)-ethyl]-3-methyl-7-(3-methyl-2-buten-1-yl)-8-(3-amino-piperidin-1-yl)-xanthine]
13 | 150 to 152 |  | C#CCCn1c(=O)c2c(nc(N3CCCC(N)C3)n2CC=C(C)C)n(C)c1=O (centres unmarked) [Example 1(65), 1-(3-butyn-1-yl)-3-methyl-7-(3-methyl-2-buten-1-yl)-8-(3-amino-piperidin-1-yl)-xanthine]
14 | 111 to 112.6 |  | C=CCCn1c(=O)c2c(nc(N3CCCC(N)C3)n2CC=C(C)C)n(C)c1=O (centres unmarked) [Example 1(66), 1-(3-butene-1-yl)-3-methyl-7-(3-methyl-2-buten-1-yl)-8-(3-amino-piperidin-1-yl)-xanthine]
15 | 112 to 115 |  | CC(C)=CCn1c(N2CCC[C@H]2CN)nc2c1c(=O)n(C)c(=O)n2C [Example 1(76), 1,3-dimethyl-7-(3-methyl-2-buten-1-yl)-8-{(S)-[2-(aminomethyl)-pyrrolidin-1-yl]}-xanthine]
16 | 118.5 to 119.5 |  | COc1cccc(CCn2c(=O)c3c(nc(N4CCCC(N)C4)n3CC=C(C)C)n(C)c2=O)c1 (centres unmarked) [Example 1(86), 1-[2-(3-methoxy-phenyl)-ethyl]-3-methyl-7-(3-methyl-2-buten-1-yl)-8-(3-amino-piperidin-1-yl)-xanthine]

Row | melting point [°C] | IC50 [1] [nM] | Structure (SMILES)
17 | 116.5 to 117.5 |  | CC(C)=CCn1c(N2CCCC(N)C2)nc2c1c(=O)n(CCc1cccc(Br)c1)c(=O)n2C (centres unmarked) [Example 1(87), 1-[2-(3-bromo-phenyl)-ethyl]-3-methyl-7-(3-methyl-2-buten-1-yl)-8-(3-amino-piperidin-1-yl)-xanthine]
18 | 126.8 to 127.5 |  | CC(C)=CCn1c(N2CCCC(N)C2)nc2c1c(=O)n(CCc1cccc(F)c1)c(=O)n2C (centres unmarked) [Example 1(98), 1-[2-(3-fluoro-phenyl)-ethyl]-3-methyl-7-(3-methyl-2-buten-1-yl)-8-(3-amino-piperidin-1-yl)-xanthine]
19 | 120.8 to 122 |  | CC(C)=CCn1c(N2CCCC(N)C2)nc2c1c(=O)n(CCc1cccc([N+](=O)[O-])c1)c(=O)n2C (centres unmarked) [Example 1(99), 1-[2-(3-nitro-phenyl)-ethyl]-3-methyl-7-(3-methyl-2-buten-1-yl)-8-(3-amino-piperidin-1-yl)-xanthine]
20 | 129 to 130.2 |  | CC(C)=CCn1c(N2CCCC(N)C2)nc2c1c(=O)n(CCc1ccc(C)cc1)c(=O)n2C (centres unmarked) [Example 1(100), 1-[2-(4-methyl-phenyl)-ethyl]-3-methyl-7-(3-methyl-2-buten-1-yl)-8-(3-amino-piperidin-1-yl)-xanthine]
21 | 147 |  | Cn1c(=O)c2c(nc(N3CCCC(N)C3)n2C)n(C)c1=O (centres unmarked) [Example 1(115), 1,3,7-trimethyl-8-(3-amino-piperidin-1-yl)-xanthine]
22 | 140.5 to 143 |  | CC(C)=CCn1c(NCC(C)(C)N)nc2c1c(=O)n(C)c(=O)n2C [Example 1(134), 1,3-dimethyl-7-(3-methyl-2-buten-1-yl)-8-(2-amino-2-methyl-propylamino)-xanthine]
23 | 141 to 144 |  | CC(C)=CCn1c(NC[C@@H](C)N)nc2c1c(=O)n(C)c(=O)n2C [Example 1(135), 1,3-dimethyl-7-(3-methyl-2-buten-1-yl)-8-((R)-2-amino-propylamino)-xanthine]
24 | 150 |  | Cn1c(=O)c2c(nc(N3CCC(N)C3)n2Cc2ccccc2)n(C)c1=O (centres unmarked) [Example 1, 1,3-dimethyl-7-benzyl-8-(3-amino-pyrrolidin-1-yl)-xanthine]
25 | 102 to 105 |  | COC(=O)Cn1c(=O)c2c(nc(N3CCC[C@H](N)C3)n2CC=C(C)C)n(C)c1=O [Example 2(19), 1-[(methoxycarbonyl)-methyl]-3-methyl-7-(3-methyl-2-buten-1-yl)-8-((S)-3-amino-piperidin-1-yl)-xanthine]
26 | 142 to 144 |  | CCOC(=O)c1ccc(CCn2c(=O)c3c(nc(N4CCC[C@H](N)C4)n3CC=C(C)C)n(C)c2=O)cc1 [Example 2(21), 1-{2-[4-(ethoxycarbonyl)-phenyl]-ethyl}-3-methyl-7-(3-methyl-2-buten-1-yl)-8-((S)-3-amino-piperidin-1-yl)-xanthine]
27 | 162 to 163.5 |  | CC(C)=CCn1c(N2CCCC(N)C2)nc2c1c(=O)n(CCc1cc(F)cc(F)c1)c(=O)n2C (centres unmarked) [Example 2(36), 1-[2-(3,5-difluoro-phenyl)-ethyl]-3-methyl-7-(3-methyl-2-buten-1-yl)-8-(3-amino-piperidin-1-yl)-xanthine]
28 | 115 to 117 |  | CC(C)=CCn1c(N2CCCC(N)C2)nc2c1c(=O)n(C)c(=O)n2C(C)C (centres unmarked) [Example 2(60), 1-methyl-3-isopropyl-7-(3-methyl-2-buten-1-yl)-8-(3-amino-piperidin-1-yl)-xanthine]
29 | 146 to 149 |  | CC(C)=CCn1c(N2CCCC(N)C2)nc2c1c(=O)n(C)c(=O)n2CCC#N (centres unmarked) [Example 2(62), 1-methyl-3-(2-cyano-ethyl)-7-(3-methyl-2-buten-1-yl)-8-(3-amino-piperidin-1-yl)-xanthine]
30 | 138 |  | CC(C)=CCn1c(N(C)CC(N)C(=O)N2CCCC2)nc2c1c(=O)n(C)c(=O)n2C (centres unmarked) [Example 2(142), 1,3-dimethyl-7-(3-methyl-2-buten-1-yl)-8-{N-[2-amino-3-oxo-3-(pyrrolidin-1-yl)-propyl]-N-methyl-amino}-xanthine]
31 | 226 to 228 |  | CC(C)=CCn1c(N2CCC[C@H](N)C2)nc2c1c(=O)n(CCC(=O)O)c(=O)n2C [Example 6(4), 1-(2-carboxy-ethyl)-3-methyl-7-(3-methyl-2-buten-1-yl)-8-((S)-3-amino-piperidin-1-yl)-xanthine]
32 | 228 to 235 |  | CC(C)=CCn1c(N2CCCC(N)C2)nc2c1c(=O)n(CCc1ccccc1)c(=O)n2CC(=O)O (centres unmarked) [Example 6(5), 1-(2-phenyl-ethyl)-3-carboxymethyl-7-(3-methyl-2-buten-1-yl)-8-(3-amino-piperidin-1-yl)-xanthine]
